Here are results for one molecule from patent publication US5332733A, “Heterocyclically substituted piperazinoakylbenzoxazine and piperazinoalkylbenzothiazine compounds, processes for preparing them, and medicaments containing them” (Kali-Chemie Pharma GmbH, priority 1990, dated 1994).

Each structure is given as a SMILES string.

The target in assay [1] is T1, 5-lipoxygenase (Mus musculus, UniProt P48999).
T1 construct: A cell suspension containing peritoneal cells from male mice 8-10 weeks old was obtained in a known manner; endogenous in cells; host or cells: mouse peritoneal macrophages (primary, adherent)
T1 sequence (P48999 1-674): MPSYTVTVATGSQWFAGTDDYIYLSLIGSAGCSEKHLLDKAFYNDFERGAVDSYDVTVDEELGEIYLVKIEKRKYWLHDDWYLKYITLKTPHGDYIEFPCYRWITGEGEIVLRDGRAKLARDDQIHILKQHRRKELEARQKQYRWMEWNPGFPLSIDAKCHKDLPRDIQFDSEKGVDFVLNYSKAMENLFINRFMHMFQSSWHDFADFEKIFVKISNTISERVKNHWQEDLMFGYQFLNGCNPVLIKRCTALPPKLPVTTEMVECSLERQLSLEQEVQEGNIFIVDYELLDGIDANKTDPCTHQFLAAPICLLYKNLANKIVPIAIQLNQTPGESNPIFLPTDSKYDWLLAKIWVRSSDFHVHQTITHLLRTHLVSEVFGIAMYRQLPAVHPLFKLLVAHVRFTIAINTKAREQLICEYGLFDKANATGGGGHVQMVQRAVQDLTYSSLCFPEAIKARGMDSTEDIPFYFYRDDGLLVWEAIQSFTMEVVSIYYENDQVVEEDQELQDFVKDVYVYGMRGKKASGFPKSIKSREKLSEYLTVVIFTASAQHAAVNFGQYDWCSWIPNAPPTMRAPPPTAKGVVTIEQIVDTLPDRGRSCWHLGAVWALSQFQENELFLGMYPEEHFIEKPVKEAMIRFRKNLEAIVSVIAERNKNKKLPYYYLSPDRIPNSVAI
The experiment in a line: In vitro 5-lipoxygenase inhibition, release of LTC4 from zymosan-stimulated peritoneal macrophages. The class given is cell-based. To be noted: zymosan-stimulated mouse peritoneal macrophage cells, 10^-5 mole/l. From the text: (§1) 5. In Vitro Determination of Cyclooxygenase Inhibition And 5-lipoxygenase Inhibition.
(§2) After a cell is activated, arachidonic acid contained in cell membranes is metabolized in two ways. Leucotrienes, inter alia leucotriene C4, are formed due to the action of the enzyme 5-lipoxygenase (=5-LO), and prostanoids are formed due to the action of the enzyme cyclooxygenase (=CO). In in vitro systems these metabolites are secreted from the cell.
(§3) To evaluate the cyclooxygenase-inhibiting and 5-lipoxygenase-inhibiting properties of the test substances, their inhibitory activity on the biosynthesis of the arachidonic acid derivatives leucotriene C4 (=LTC4) and 6-keto-prostaglandin F1α (=6-keto-PGF1α) was determined in vitro on mouse peritoneal macrophage cells. For this purpose the LTC4 and 6-keto-PGF1α contents of a mouse peritoneal macrophage cell culture medium were determined by zymosan stimulation as described by Scott et al. (J. Exp. Med. 152 (1980), 324-335) and by Fradin et al., (Prostaglandins, 33 (1987), 579-589).
(§4) A cell suspension containing peritoneal cells from male mice 8-10 weeks old was obtained in a known manner. A solution marketed under the designation RPMI 1640 (Manufactured by Gibco) was used as the cell culture medium, to which heparin (10 international units/ml) and antibiotics were added according to the procedure of Bonney et al. (Biochem. J. 176 (1978) 422-433). The cell suspension was adjusted to a cell concentration of 10^6 cells per ml and distributed uniformly on titer dishes containing 24 1-ml titer cells (wells). These were kept for two hours in a humidified incubator filled with air enriched with 7% CO2. Cells not adhering to the titer well walls were then removed by washing. The remaining macrophage cells adhering to the walls were incubated for about 12 hours in a suspension medium to which 0.1% of bovine serum albumin (BSA=Bovine Serum Albumin) was added. The suspension medium was then replaced by a Hanks salt solution (=Hanks Balanced Salt Solution=HBSS) with 10 mmoles of HEPES (=hydroxyethylpiperazinoethanesulfonic acid) to which a 0.1% strength solution of the test substances in aqueous, 1% strength dimethylformamide or only the solvent had been added. After 15 minutes the arachidonic acid metabolism was stimulated by adding […] of zymosan (=glycoprotein mixture isolated from cell walls of beer yeast, Saccharomyces cerevisiae, Manufactured by Sigma Chemical Co., Munich) per titre cell. After 2 hours samples of the respective supernatant liquid in each cell were examined for their 6-keto-PGF1α and LTC4 contents by an enzyme immunoassay (=EIA). This EIA is carried out following the method of Pradelles et al. (Analytical Chem. 57 (1985), 1170-1173). The determination of LTC4 and the determination of 6-keto-PGF1α were each carried out on suitable dilutions of the samples (1:50 to 1:250 for the LTC4 determination and 1:250 to 1:1,250 for the 6-keto-PGF1α determination) in comparison with a comparative scale. To determine the inhibiting effect of a 10^-5 molar concentration of the compounds, the amounts of reference eicosanoid were determined, and the inhibiting effect was calculated therefrom in % inhibition compared to the measurements of the zymosan controls.

Assay [2] concerns the target T2, cyclooxygenase (Mus musculus, UniProt P22437).
T2 construct: A cell suspension containing peritoneal cells from male mice 8-10 weeks old was obtained in a known manner; endogenous in cells; host or cells: mouse peritoneal macrophages (primary, adherent)
T2 sequence (P22437 27-602): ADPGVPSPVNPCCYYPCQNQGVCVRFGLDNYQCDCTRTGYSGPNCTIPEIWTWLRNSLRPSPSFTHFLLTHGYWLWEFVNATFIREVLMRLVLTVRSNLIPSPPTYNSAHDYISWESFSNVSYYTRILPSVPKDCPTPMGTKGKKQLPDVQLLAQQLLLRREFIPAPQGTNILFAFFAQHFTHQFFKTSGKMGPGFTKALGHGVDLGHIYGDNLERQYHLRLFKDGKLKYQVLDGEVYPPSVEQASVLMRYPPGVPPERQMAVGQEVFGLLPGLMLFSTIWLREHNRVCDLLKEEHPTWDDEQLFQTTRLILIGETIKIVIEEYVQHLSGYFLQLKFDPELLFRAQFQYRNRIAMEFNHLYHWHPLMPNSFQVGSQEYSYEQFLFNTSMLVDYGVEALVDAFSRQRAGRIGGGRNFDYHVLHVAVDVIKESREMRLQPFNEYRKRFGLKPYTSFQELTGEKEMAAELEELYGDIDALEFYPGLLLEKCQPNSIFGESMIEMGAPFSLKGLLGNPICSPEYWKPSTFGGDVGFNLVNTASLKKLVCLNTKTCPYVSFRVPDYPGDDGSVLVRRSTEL
As to the kind of experiment: In vitro cyclooxygenase inhibition, release of 6-keto-PGF1α from zymosan-stimulated peritoneal macrophages. The note with it: zymosan-stimulated mouse peritoneal macrophage cells, 10^-5 mole/l. The class given is cell-based.
Excerpt: as §1, §2, §3, §4

For `Cc1ccnc(N2CCN(C3Sc4ccccc4NC3=O)CC2)c1` (centres unmarked) [Example 5, 2-[4-(4-methylpyridin-2-yl)-piperazin-1-yl]-2H-1,4-benzothiazine-3(4H)-one], in assay [1], the “% inhibition upon release of LTC4” value was found to be 72%. Further, the “% inhibition upon release of 6-keto-PGF1α” value in assay [2] came to 36%.
